“Also recorded” adds a separate entry of the source.

A short description of data set [1]: logD by shake flask method (octanol/PBS pH 7.4). Type of data set: physicochemical. The method, then: The logD value (distribution coefficient) of the compound was determined by means of the shake flask method, measuring the distribution of the solute in octanol and phosphate-buffered saline (PBS, pH 7.4). The concentration of ZED1227 in the immiscible solvents was determined by HPLC (vide supra). The stability in PBS (pH 7.4 or acidified to pH 5.0), in artificial gastric, and intestinal fluid was calculated as the percentage of residual parent compound after incubation for 24 h at 37 °C, using an initial concentration of 100 μM.

The nature of data set [2]: Caco-2 cell permeability assay (CacoReady). Type of data set: in vitro ADME. The note with it: human, apical 200 μM, HBSS pH 6.5, 1% DMSO. The method, then: The permeability coefficient (Papp value) was obtained from Caco-2 monolayer studies predicting oral/intestinal bioavailability of the tested compound. The assay was performed using CacoReady^TM ready-to-use kits from ReadyCell according to the manufacturer’s protocol. […] The concentration of ZED1227 in the basal and apical media was determined by HPLC. The initial concentration of ZED1227 in the apical medium was 200 μM. Propranolol (20 μM final concentration) was used as a control to validate each ready-to-use plate. Compound stock solutions were prepared in DMSO and further diluted to 1% DMSO using HBSS pH 6.5 to yield the desired working concentration.

The target of another data set is T1, hTG6 (Homo sapiens, UniProt O95932).
T1 construct: purchased Zedira T021
T1 sequence (O95932 1-706): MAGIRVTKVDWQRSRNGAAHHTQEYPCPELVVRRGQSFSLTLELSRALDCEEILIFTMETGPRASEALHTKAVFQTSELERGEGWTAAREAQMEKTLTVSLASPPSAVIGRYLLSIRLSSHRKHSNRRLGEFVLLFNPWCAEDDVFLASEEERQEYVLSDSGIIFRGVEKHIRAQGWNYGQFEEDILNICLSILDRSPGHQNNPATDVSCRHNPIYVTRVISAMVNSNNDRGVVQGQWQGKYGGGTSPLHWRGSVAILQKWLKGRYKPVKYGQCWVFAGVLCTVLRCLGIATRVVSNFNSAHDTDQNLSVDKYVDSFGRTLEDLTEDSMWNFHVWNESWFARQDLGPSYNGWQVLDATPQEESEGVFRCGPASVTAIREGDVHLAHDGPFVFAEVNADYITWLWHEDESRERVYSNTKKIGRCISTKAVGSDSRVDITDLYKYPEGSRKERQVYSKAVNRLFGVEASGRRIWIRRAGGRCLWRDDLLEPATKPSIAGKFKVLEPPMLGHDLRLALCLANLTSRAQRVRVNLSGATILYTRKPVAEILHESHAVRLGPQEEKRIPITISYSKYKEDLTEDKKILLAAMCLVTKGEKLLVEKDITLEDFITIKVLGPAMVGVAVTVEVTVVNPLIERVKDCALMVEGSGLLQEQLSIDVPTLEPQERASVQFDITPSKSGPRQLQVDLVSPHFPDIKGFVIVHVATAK
Description: Fluorescent transamidation assay (DCC-assay), hTG6. The class given is biochemical. How it is done: Inhibition data were determined using the fluorescent transamidation assay (dansylcadaverine incorporation into glutamine-donor substrate N,N-dimethyl casein, DCC-assay). Briefly, to 15 μL of ZED1227 solution (dissolved and serial diluted in 2% (v/v) DMSO/assay buffer), 285 μL assay buffer [47.5 mM tris(hydroxymethyl)aminomethane, 9.5 mM CaCl2, 9.5 mM glutathione, 2.4% (v/v) glycerol, 190 mM NaCl, pH 8.0] containing dansylcadaverine (15.9 μM), N,N-dimethyl casein (3.8 μM) and the indicated recombinant transglutaminase enzyme [0.95 μg/mL hTG1 (T035), 0.81 μg/mL hTG2 (T022), 0.83 μg/mL hTG6 (T021), all from Zedira] were added, mixed and the kinetic measurement started immediately. […]
Fluorescence emission was continuously monitored for 30 min at λem = 500 nm (λex = 330 nm) and 37 °C using a CLARIOstar fluorescence plate reader (BMG Labtech, Ortenberg, Germany). […] The respective IC50 (and IC90 for TG2) values were calculated by non-linear regression using the MARS software package (BMG Labtech). […]
To facilitate comparability during lead structure optimization and to roughly estimate concentrations needed at the target site, the apparent IC50 values (calculated by four-parameter non-linear fit by MARS software) for irreversible inhibitors are more instructive and are therefore reported. […]

Data set [3] has as its system adult patients with well-controlled celiac disease. Set-up: method as in PMID 34192430. The note with it: cited from earlier work.

For `CCC(CC)CNC(=O)Cn1cccc(NC(=O)[C@H](CC/C=C/C(=O)OC)NC(=O)c2cncn2C)c1=O` [ZED1227, (S,E)-Methyl 7-(1-(2-(2-ethylbutylamino)-2-oxoethyl)-2-oxo-1,2-dihydropyridin-3-ylamino)-6-(1-methyl-1H-imidazole-5-carboxamido)-7-oxohept-2-enoate], in data set [1], the logD (as a rule, the decadic logarithm of the distribution of all forms, ionised or not, between an organic phase and buffer at a given pH) is 2. Also, the Papp A→B (in general, the apparent permeability from the apical to the basolateral side of a cell layer) at 200 μM in data set [2] was below 1 ×10⁻⁶ cm/s. Moreover, the “Selectivity hTG6 versus hTG2” value on hTG6 (ratio of app. IC50 values) was found to be 122 fold. Besides, the IC50 (usually the concentration that inhibits the measured activity by half) at hTG6 (recombinant, transamidation assay, read-out: App. IC50 hTG6) came out at 6.44 µM. Further, in data set [3] (6-week treatment, 10, 50, 100 mg oral, 3 g daily gluten challenge), the “Effect on gluten-induced duodenal mucosal injury, phase 2a” value is given as “protect celiac patients from gluten-induced mucosal injury; also recorded: all dose levels attenuated gluten-induced duodenal mucosal injury; also recorded: protected celiac patients from mucosal damage”. In addition, the “Tolerability in gluten challenge study” value in data set [3] (celiac patients, gluten challenge) is on record as “well-tolerated”.

The record behind these values is PMC9139979, “Features of ZED1227: The First-In-Class Tissue Transglutaminase Inhibitor Undergoing Clinical Evaluation for the Treatment of Celiac Disease” (Cells, 2022).
